Test results published in PubChem BioAssay (NCI).
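Tested at 5 concentrations; 48 h exposure; 96-well plates; endpoints linearly interpolated, else capped at highest concentration. TGI marks complete inhibition of growth.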

How the values were obtained:
Test in all cases: NCI-60 cell line screen, 48 h
786-0 renal = tested on: 786-0 renal
A549 NSCLC = tested on: A549 NSCLC
ACHN renal = tested on: ACHN renal
BT-549 breast = tested on: BT-549 breast
CAKI-1 renal = tested on: CAKI-1 renal
CCRF-CEM leukemia = tested on: CCRF-CEM leukemia
COLO 205 colon = tested on: COLO 205 colon
DU-145 prostate = tested on: DU-145 prostate
EKVX NSCLC = tested on: EKVX NSCLC
HCC-2998 colon = tested on: HCC-2998 colon
HCT-116 colon = tested on: HCT-116 colon
HCT-15 colon = tested on: HCT-15 colon
HL-60(TB) leukemia = tested on: HL-60(TB) leukemia
HOP-62 NSCLC = tested on: HOP-62 NSCLC
HOP-92 NSCLC = tested on: HOP-92 NSCLC
HS 578T breast = tested on: HS 578T breast
HT29 colon = tested on: HT29 colon
IGROV1 ovarian = tested on: IGROV1 ovarian
K-562 leukemia = tested on: K-562 leukemia
KM12 colon = tested on: KM12 colon
LOX IMVI melanoma = tested on: LOX IMVI melanoma
M14 melanoma = tested on: M14 melanoma
MALME-3M melanoma = tested on: MALME-3M melanoma
MCF7 breast = tested on: MCF7 breast
MDA-MB-231 breast = tested on: MDA-MB-231 breast
MDA-MB-435 = tested on: MDA-MB-435
MDA-N = tested on: MDA-N
MOLT-4 leukemia = tested on: MOLT-4 leukemia
NCI-H226 lung = tested on: NCI-H226 lung
NCI-H23 lung = tested on: NCI-H23 lung
NCI-H460 lung = tested on: NCI-H460 lung
NCI-H522 lung = tested on: NCI-H522 lung
NCI/ADR-RES ovarian = tested on: NCI/ADR-RES ovarian
OVCAR-3 ovarian = tested on: OVCAR-3 ovarian
OVCAR-4 ovarian = tested on: OVCAR-4 ovarian
OVCAR-5 ovarian = tested on: OVCAR-5 ovarian
OVCAR-8 ovarian = tested on: OVCAR-8 ovarian
PC-3 prostate = tested on: PC-3 prostate
RPMI-8226 leukemia = tested on: RPMI-8226 leukemia
RXF 393 renal = tested on: RXF 393 renal
SF-268 CNS = tested on: SF-268 CNS
SF-295 CNS = tested on: SF-295 CNS
SF-539 CNS = tested on: SF-539 CNS
SK-MEL-2 melanoma = tested on: SK-MEL-2 melanoma
SK-MEL-28 melanoma = tested on: SK-MEL-28 melanoma
SK-MEL-5 melanoma = tested on: SK-MEL-5 melanoma
SK-OV-3 ovarian = tested on: SK-OV-3 ovarian
SN12C renal = tested on: SN12C renal
SNB-19 CNS = tested on: SNB-19 CNS
SNB-75 CNS = tested on: SNB-75 CNS
SR leukemia = tested on: SR leukemia
SW-620 colon = tested on: SW-620 colon
T-47D breast = tested on: T-47D breast
TK-10 renal = tested on: TK-10 renal
U251 CNS = tested on: U251 CNS
UACC-257 melanoma = tested on: UACC-257 melanoma
UACC-62 melanoma = tested on: UACC-62 melanoma
A498 renal = tested on: A498 renal

## COc1ccc(C2SC(N)=Nc3c2c(C)nn3C(=O)c2ccc(Cl)cc2)cc1OC (configuration not stated)
786-0 renal
  TGI: > 10 µM
A549 NSCLC
  TGI: > 10 µM
ACHN renal
  TGI: > 10 µM
BT-549 breast
  TGI: > 10 µM
CAKI-1 renal
  TGI: > 10 µM
CCRF-CEM leukemia
  TGI: > 10 µM
COLO 205 colon
  TGI: > 10 µM
DU-145 prostate
  TGI: > 10 µM
EKVX NSCLC
  TGI: > 10 µM
HCC-2998 colon
  TGI: > 10 µM
HCT-116 colon
  TGI: > 10 µM
HCT-15 colon
  TGI: > 10 µM
HL-60(TB) leukemia
  TGI: > 10 µM
HOP-62 NSCLC
  TGI: > 10 µM
HOP-92 NSCLC
  TGI: > 10 µM
HS 578T breast
  TGI: > 10 µM
HT29 colon
  TGI: > 10 µM
IGROV1 ovarian
  TGI: > 10 µM
K-562 leukemia
  TGI: > 10 µM
KM12 colon
  TGI: > 10 µM
LOX IMVI melanoma
  TGI: > 10 µM
M14 melanoma
  TGI: > 10 µM
MALME-3M melanoma
  TGI: > 10 µM
MCF7 breast
  TGI: > 10 µM
MDA-MB-231 breast
  TGI: > 10 µM
MDA-MB-435
  TGI: > 10 µM
MDA-N
  TGI: > 10 µM
MOLT-4 leukemia
  TGI: > 10 µM
NCI-H226 lung
  TGI: > 10 µM
NCI-H23 lung
  TGI: > 10 µM
NCI-H460 lung
  TGI: > 10 µM
NCI-H522 lung
  TGI: > 10 µM
NCI/ADR-RES ovarian
  TGI: > 10 µM
OVCAR-3 ovarian
  TGI: > 10 µM
OVCAR-4 ovarian
  TGI: > 10 µM
OVCAR-5 ovarian
  TGI: > 10 µM
OVCAR-8 ovarian
  TGI: > 10 µM
PC-3 prostate
  TGI: > 10 µM
RPMI-8226 leukemia
  TGI: > 10 µM
RXF 393 renal
  TGI: > 10 µM
SF-268 CNS
  TGI: > 10 µM
SF-295 CNS
  TGI: > 10 µM
SF-539 CNS
  TGI: > 10 µM
SK-MEL-2 melanoma
  TGI: > 10 µM
SK-MEL-28 melanoma
  TGI: > 10 µM
SK-MEL-5 melanoma
  TGI: > 10 µM
SK-OV-3 ovarian
  TGI: > 10 µM
SN12C renal
  TGI: > 10 µM
SNB-19 CNS
  TGI: > 10 µM
SNB-75 CNS
  TGI: > 10 µM
SR leukemia
  TGI: > 10 µM
SW-620 colon
  TGI: > 10 µM
T-47D breast
  TGI: > 10 µM
TK-10 renal
  TGI: > 10 µM
U251 CNS
  TGI: > 10 µM
UACC-257 melanoma
  TGI: > 10 µM
UACC-62 melanoma
  TGI: > 10 µM

## COc1ccc(OC/C(N=Cc2ccncc2)=N/NC(=O)c2ccncc2)cc1
786-0 renal
  TGI: > 100 µM
A498 renal
  TGI: > 100 µM
A549 NSCLC
  TGI: > 100 µM
ACHN renal
  TGI: > 100 µM
BT-549 breast
  TGI: > 100 µM
CAKI-1 renal
  TGI: > 100 µM
CCRF-CEM leukemia
  TGI: > 100 µM
COLO 205 colon
  TGI: > 100 µM
DU-145 prostate
  TGI: > 100 µM
EKVX NSCLC
  TGI: > 100 µM
HCC-2998 colon
  TGI: > 100 µM
HCT-116 colon
  TGI: > 100 µM
HCT-15 colon
  TGI: > 100 µM
HL-60(TB) leukemia
  TGI: > 100 µM
HOP-62 NSCLC
  TGI: > 100 µM
HOP-92 NSCLC
  TGI: 96.4 µM
HS 578T breast
  TGI: > 100 µM
HT29 colon
  TGI: > 100 µM
IGROV1 ovarian
  TGI: > 100 µM
K-562 leukemia
  TGI: > 100 µM
KM12 colon
  TGI: > 100 µM
LOX IMVI melanoma
  TGI: > 100 µM
M14 melanoma
  TGI: > 100 µM
MALME-3M melanoma
  TGI: > 100 µM
MCF7 breast
  TGI: > 100 µM
MDA-MB-231 breast
  TGI: > 100 µM
MDA-MB-435
  TGI: 62.4 µM
MDA-N
  TGI: 39.8 µM
MOLT-4 leukemia
  TGI: > 100 µM
NCI-H226 lung
  TGI: > 100 µM
NCI-H23 lung
  TGI: > 100 µM
NCI-H460 lung
  TGI: > 100 µM
NCI-H522 lung
  TGI: > 100 µM
NCI/ADR-RES ovarian
  TGI: > 100 µM
OVCAR-3 ovarian
  TGI: > 100 µM
OVCAR-4 ovarian
  TGI: > 100 µM
OVCAR-5 ovarian
  TGI: > 100 µM
OVCAR-8 ovarian
  TGI: > 100 µM
PC-3 prostate
  TGI: > 100 µM
RPMI-8226 leukemia
  TGI: > 100 µM
RXF 393 renal
  TGI: > 100 µM
SF-268 CNS
  TGI: > 100 µM
SF-295 CNS
  TGI: > 100 µM
SF-539 CNS
  TGI: > 100 µM
SK-MEL-2 melanoma
  TGI: > 100 µM
SK-MEL-28 melanoma
  TGI: > 100 µM
SK-OV-3 ovarian
  TGI: > 100 µM
SN12C renal
  TGI: > 100 µM
SNB-19 CNS
  TGI: > 100 µM
SW-620 colon
  TGI: > 100 µM
T-47D breast
  TGI: > 100 µM
TK-10 renal
  TGI: > 100 µM
U251 CNS
  TGI: > 100 µM
UACC-257 melanoma
  TGI: > 100 µM
UACC-62 melanoma
  TGI: > 100 µM
